The values below come from ChEMBL document CHEMBL1201862, “PubChem BioAssay data set” (2004).

Structures are written as SMILES.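 1) Cells in 96-well plates. 2) Compound, 48 h, 5 concentrations. 3) Linear interpolation between surrounding doses. 4) Unreached endpoint = highest concentration. The concentration for 50% growth inhibition is given as GI50.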 Activity calls are given as the source filed them. Cut-off read from the data, not from the text of the source: active = GI50 up to about 1.1 µM and inactive = higher.

Some test systems named below: A498; A549; COLO 205; HCC 2998; HL-60; HOP-92; Hs-578T; KM12; MCF7; NCI-H226; NCI-H23; NCI/ADR-RES; OVCAR-8; PC-3; SF-268; SF-539; SK-MEL-2; SW-620; UACC-62; UO-31.
Holding throughout (assay): growth of human tumour cells (NCI), 48 h

As to `CSc1nc(SC)c2ncn(C3CC(Oc4ccc(C)cc4)C(COc4ccc(C)cc4)O3)c2n1` (stereo not given), the GI50 in the assay on A498, in the assay on A549, with COLO 205, with HCC 2998, with HL-60 and in the assay on HOP-92 was > 100 µM (inactive) each time. The GI50 with Hs-578T, with KM12, in the assay on MCF7, in the assay on NCI-H226, in the assay on NCI-H23 and in the assay with NCI/ADR-RES was > 100 µM (inactive) in each case. The GI50 with OVCAR-8 is > 100 µM (inactive); with PC-3, > 100 µM (inactive); with SF-268, > 100 µM (inactive); in the assay on SF-539, > 100000 nM (inactive); with SK-MEL-2, > 100 µM (inactive); with SW-620 it was > 100 µM (inactive). Further, the GI50 in the assay with UACC-62 is > 100 µM (inactive); in the assay with UO-31, 984 nM (active).
For the compound `CN(C)c1nc(N)nc(CCl)n1`, the GI50 is 27.9 µM (inactive) in the assay on A498; 78.9 µM (inactive) with A549; 29.2 µM (inactive) with COLO 205; 45.6 µM (inactive) in the assay on HCC 2998; 19.1 µM (inactive) in the assay with HL-60; 20.7 µM (inactive) in the assay on HOP-92. Moreover, the GI50 is 25.4 µM (inactive) with Hs-578T; 28.6 µM (inactive) with KM12; 40.2 µM (inactive) in the assay with MCF7; 36.8 µM (inactive) with NCI-H226; 24.5 µM (inactive) in the assay with NCI-H23; 22 µM (inactive) in the assay on NCI/ADR-RES. Moreover, the GI50 in the assay on OVCAR-8 is 35.5 µM (inactive); in the assay on PC-3, 74.8 µM (inactive); in the assay with SF-268, 27.2 µM (inactive); with SF-539, 26100 nM (inactive); in the assay with SK-MEL-2, > 100 µM (inactive); in the assay on SW-620 it was 28.3 µM (inactive). For the same compound, the figures for the GI50 in the assay with UACC-62 and in the assay on UO-31 were 18.9 µM (inactive) and 12400 nM (inactive), respectively.
For the compound `CCc1nc(N)nc(N)c1-c1ccc(Cc2ccccc2)c([N+](=O)[O-])c1`, the GI50 is 3.05 µM (inactive) with A498; < 0.01 µM (active) in the assay on A549; 0.561 µM (active) in the assay with COLO 205; 0.151 µM (active) in the assay with HCC 2998; < 0.01 µM (active) in the assay with HL-60; 1.17 µM (inactive) in the assay with HOP-92. Further, the GI50 in the assay on Hs-578T was 12.3 µM (inactive); with KM12, 0.0762 µM (active); with MCF7 it was 0.0484 µM (active); in the assay with NCI-H226 it was 27.6 µM (inactive); with NCI-H23 it was 0.0171 µM (active); with NCI/ADR-RES, 0.0475 µM (active). For the same compound, the GI50 in the assay with OVCAR-8 was < 0.0153 µM (active); with PC-3, < 0.0353 µM (active); with SF-268, 0.0192 µM (active); in the assay on SF-539 it was 47.5 nM (active); in the assay with SK-MEL-2 it was 33.9 µM (inactive); in the assay on SW-620, < 0.01 µM (active). Moreover, the GI50 with UACC-62 was < 0.0111 µM (active); in the assay on UO-31, 124 nM (active).
As to `O=C(NCCCCCCNC(=O)n1cc(F)c(=O)[nH]c1=O)NCCCOCCOCCOCCOCCOCCOCCOCCOCCOCCOCCOCCOCCOCCOCCOCCOCCOCCOCCOCCOCCOCCCNC(=O)C(O)C(O)C(O)C(O)CO` (stereo not given), the GI50 in the assay with A498 is 6.95 µM (inactive); in the assay on A549, 6.52 µM (inactive); with COLO 205, 23.8 µM (inactive); in the assay with HCC 2998, 5.66 µM (inactive); in the assay on HL-60, 20.8 µM (inactive); in the assay on HOP-92, > 18.4 µM (inactive). Besides, the GI50 in the assay with Hs-578T was 61.8 µM (inactive); with KM12 it was 31.7 µM (inactive); with MCF7, 4.72 µM (inactive); in the assay with NCI-H226 it was > 100 µM (inactive); with NCI-H23, 32.8 µM (inactive); in the assay on NCI/ADR-RES, 69.8 µM (inactive). Further, the GI50 in the assay on OVCAR-8 is 39.2 µM (inactive); with PC-3, 64.3 µM (inactive); in the assay with SF-268, 55.5 µM (inactive); in the assay with SF-539 it was 1810 nM (inactive); in the assay with SK-MEL-2, > 100 µM (inactive); in the assay with SW-620, 53.8 µM (inactive). Further, the values for the GI50 in the assay with UACC-62 and in the assay with UO-31 were 28.8 µM (inactive) and 20900 nM (inactive), respectively.
As for `COC(=O)c1cc2c(cc1Cl)Sc1nnc(Nc3ccccc3)n1S2(=O)=O`, the GI50 is 5.55 µM (inactive) in the assay on A498; 8.47 µM (inactive) in the assay with A549; 6.52 µM (inactive) in the assay on COLO 205; 1.91 µM (inactive) with HCC 2998; 2.77 µM (inactive) in the assay with HL-60; 1.42 µM (inactive) with HOP-92. For the same compound, the GI50 in the assay on Hs-578T is 3.1 µM (inactive); in the assay with KM12 it was 2.71 µM (inactive); with MCF7, 2.86 µM (inactive); with NCI-H226, 2.45 µM (inactive); in the assay on NCI-H23, 2.34 µM (inactive); with NCI/ADR-RES, 8.47 µM (inactive). Besides, the GI50 is 3.58 µM (inactive) in the assay with OVCAR-8; 3.08 µM (inactive) in the assay on PC-3; 2.26 µM (inactive) with SF-268; 2150 nM (inactive) in the assay on SF-539; 2.81 µM (inactive) in the assay with SK-MEL-2; 3.39 µM (inactive) in the assay with SW-620. Also, the GI50 in the assay with UACC-62 was 3.99 µM (inactive); in the assay on UO-31, 2480 nM (inactive).
`CCCC(=O)Nc1cc(/C=C/C(=O)N2CC(CCl)c3c2cc(O)c2[nH]cc(C)c32)n(C)c1` (stereo not given): the GI50 in the assay with A498, with A549, in the assay on COLO 205, in the assay on HCC 2998, in the assay with HL-60 and in the assay with HOP-92 was < 2.5e-05 µM (active) throughout. Also, the GI50 in the assay on Hs-578T was < 2.5e-05 µM (active); in the assay on KM12 it was < 2.5e-05 µM (active); in the assay with MCF7, < 2.5e-05 µM (active); in the assay on NCI-H226, < 2.5e-05 µM (active); with NCI-H23, < 2.5e-05 µM (active); with NCI/ADR-RES, 9.64e-05 µM (active). For the same compound, the GI50 in the assay with OVCAR-8 is < 2.5e-05 µM (active); in the assay with PC-3, < 2.5e-05 µM (active); with SF-268, < 2.5e-05 µM (active); with SF-539, < 0.025 nM (active); in the assay on SK-MEL-2 it was < 2.5e-05 µM (active); in the assay with SW-620 it was < 2.5e-05 µM (active). The figures for the GI50 in the assay with UACC-62 and with UO-31 were < 2.5e-05 µM (active) and < 0.025 nM (active), respectively.
Consider `Clc1ccc(CCNC2(c3cc4ccccc4s3)CCCCC2)cc1Cl`, for which the GI50 is 19.1 µM (inactive) in the assay with A498; 47.8 µM (inactive) in the assay with A549; 17.8 µM (inactive) with COLO 205; 7.74 µM (inactive) with HCC 2998; 16.7 µM (inactive) with HL-60; 3.84 µM (inactive) in the assay with HOP-92. Besides, the GI50 in the assay on Hs-578T was 42.5 µM (inactive); in the assay with KM12, 21.8 µM (inactive); with MCF7, 17 µM (inactive); with NCI-H226 it was 17.3 µM (inactive); in the assay on NCI-H23, 26.5 µM (inactive); in the assay with NCI/ADR-RES it was 24 µM (inactive). The GI50 in the assay on OVCAR-8 is 31.9 µM (inactive); with PC-3 it was 43.2 µM (inactive); in the assay with SF-268 it was 53 µM (inactive); with SF-539, 16900 nM (inactive); with SK-MEL-2, 19 µM (inactive); in the assay on SW-620 it was 34.7 µM (inactive). The GI50 in the assay on UACC-62 is 17.7 µM (inactive); in the assay with UO-31, 16600 nM (inactive).
